Activity calls are given as the source filed them. The rule behind the calls is not given here.
Legend:
Rattus norvegicus [1] = assay: Decrease in blood pressure in rat at 0.150 mg/kg; assay type: functional, organism-based; design: dose 0.15 mg/kg
[2] = Metal chelating activity of the compound assessed as Cu2+ complex formation at 1 x 10' -3 M by spectrometry; assay type: physicochemical; conditions: 1000 µM
Rattus norvegicus [3] = assay: Decrease in blood pressure in rat at 120 mg/kg; assay type: functional, organism-based; design: dose 120 mg/kg
Rattus norvegicus [4] = species on record: Rattus norvegicus; assay: Agonist activity at adrenergic receptor in rat vas deferens at 0.165 ug/ml; assay type: tissue-based
Rattus norvegicus [5] = assay: Increase blood pressure in rat at 1 mg/kg; assay type: functional, organism-based; design: dose 1 mg/kg
Rattus norvegicus [6] = species on record: Rattus norvegicus; assay: Potentiation of l-norepinephrine-induced adrenergic receptor activity in rat vas deferens assessed as contraction; assay type: tissue-based
Rattus norvegicus [7] = species on record: Rattus norvegicus; assay: Agonist activity at adrenergic receptor in rat vas deferens at 13 ug/ml; assay type: tissue-based
[8] = target: T1, Catechol O-methyltransferase (Homo sapiens) (UniProt P21964); assay: Activity of catechol-O-methyltransferase (unknown origin)
T1 sequence (whole entry): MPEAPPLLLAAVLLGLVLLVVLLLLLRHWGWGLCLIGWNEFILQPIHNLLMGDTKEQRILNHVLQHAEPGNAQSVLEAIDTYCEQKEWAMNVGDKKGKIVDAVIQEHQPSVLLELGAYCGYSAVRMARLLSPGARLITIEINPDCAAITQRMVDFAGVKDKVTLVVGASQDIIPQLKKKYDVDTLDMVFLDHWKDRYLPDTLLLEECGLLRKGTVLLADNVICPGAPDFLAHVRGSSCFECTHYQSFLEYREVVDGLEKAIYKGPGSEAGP

Rattus norvegicus [9] = assay: Increase blood pressure in rat at 100 mg/kg; assay type: functional, organism-based; design: dose 100 mg/kg
[10] = target: T1, Catechol O-methyltransferase (Homo sapiens); assay: Inhibition of catechol-O-methyltransferase (unknown origin)-mediated l-norepinephrine methylation; conditions: concentration not given here

With CC(C)NCC(O)c1ccc(O)c(O)c1 (racemic) the Activity (Rattus norvegicus [1]) was “Active”.
With Br.NC[C@H](O)c1ccc(O)c(O)c1 the Activity [2] was “Active”.
In the case of Oc1ccccc1O [CATECHOL], the Activity [2] is reported as “Active”.
For CC(C)NCC(O)c1cccc(O)c1O (configuration not stated), the Activity (Rattus norvegicus [3]) was “Active”.
In the case of NC[C@@H](O)c1ccc(O)c(O)c1, the Activity (Rattus norvegicus [4]) is reported as “Active” and the Activity (Rattus norvegicus [5]) is reported as “Active”.
For Br.NCC(O)c1cccc(O)c1O (configuration not stated), the Activity (Rattus norvegicus [6]) was “Active”, the Activity (Rattus norvegicus [7]) was “Active” and the Activity [8] was < 5%. For the same compound, the Activity [2] was “Active”, the Activity (Rattus norvegicus [9]) was “Active” and the inhibition [10] was 25%.

Source: ChEMBL document CHEMBL3271950, “2,3-Dihydroxyphenethanolamine as an adrenergic agent” (J Med Chem, 1976)
